How the values were obtained:
Type in all cases: cell-based, human
[1] = system: PP5 mRNA; assay: Northern blot analysis of PP5 mRNA expression in A549 cells; parameters: key to Activity class in initial screen (PP5 mRNA reduction): oligonucleotides giving a reduction of PP5 mRNA of approximately 50% or greater were considered active
Source text: The oligonucleotides shown in Table 1 were designed using the Genbank sequences HSSERTHRP (Genbank accession number X92121), HSRNAPPP5 (Genbank accession number X89416) and PPP5C (Genbank accession number U25174), synthesized and tested for inhibition of PP5 mRNA expression in A549 cells using a Northern blot assay. All oligonucleotides shown in Table 1 are chimeric oligonucleotides with central 2'-deoxy "gaps," which have phosphorothioate backbones, flanked on both sides by 2'-methoxyethoxy (2'-MOE) "wings" (shown in bold), which have phosphodiester backbones. All cytosines in the 2'-MOE wings are 5-methylcytosines.
In the initial screen, A549 cells were treated with oligonucleotides at a concentration of 300 nM oligonucleotide for four hours in the presence of […] lipofectin. Results were normalized and expressed as a percent of control. The effect of each oligonucleotide on levels of PP5 mRNA, expressed as approximate percent inhibition compared to control, is shown in Table 1. In this initial screen, oligonucleotides giving a reduction of PP5 mRNA of approximately 50% or greater were considered active. […] These sequences (SEQ ID NO: 1, 2, 3, 4, 6, 7 and 12, respectively, SEQ ID Nos shown in bold in Table 1) are therefore preferred.
These oligonucleotides were tested for their ability to reduce PP5 mRNA levels in A549 cells, using oligonucleotide doses of 25 to 500 nM.
The human lung tumor cell line A549 was obtained from the American Type Culture Collection (Rockville Md.) and were grown in DMEM (Gibco BRL, Gaithersburg Md.), supplemented with 10% fetal calf. Cells were seeded on 60 mm plates. When they reached 70% confluency, they were washed with DMEM and 1 ml of DMEM containing 15 μg/ml DOTMA/DOPE (Lipofectin®, GIBCO-BRL) and oligonucleotide at desired concentration was added. Duplicate dishes were used for each treatment condition. After 4 hours of treatment at 37°, cells were washed and cultured in fresh DMEM containing 10% fetal bovine serum for an additional 17 hours. Cells were then harvested and total RNA was extracted with TRIzol Reagent (GIBCO-BRL) according to manufacturer's protocol. Total RNA (20 μg) was fractionated on a 1% agarose gel containing formaldehyde, and transferred to a DURLON-UV (Stratagene) nylon membrane. Following UV crosslinking, the filters were hybridized with the appropriate protein phosphatase probe. The ^32 P-labeled human PP cDNA probes are generated with DECAPrime® DNA Labeling Kit (Ambion) according to the manufacturer's protocol. Hybridization was performed in a hybridization solution containing 50% formamide at 42° for 16 hours. This was followed by two low stringency washes (2×SSC) at room temperature and two high stringency washes (0.1×SSC/0.5% SDS) at 55° C. Hybridization signals were visualized by autoradiography, and filters were then stripped and reprobed with a ^32 P-labeled glyceraldehyde-3-phosphate dehydrogenase (GAPDH) probe to confirm equal loading. The densities of hybridization signals were measured with the NIH Image program (ImagePC).
The cells were harvested, and total RNA was extracted with TRIzol® Reagent according to the methods of the manufacturer. Total RNA (20 μg) was fractionated on 1% agarose gels containing formaldehyde and transferred to DURLON-UV nylon membranes (Stratagene). Following UV cross-linking, the filters were hybridized with a [α^32 P]probe for human PP5. The human PP5 cDNA probe was generated from the full length coding region of PP5 and [α^32 P]-dATP was labeled with DECAprime® DNA Labeling Kit according to the manufacturer's protocol. Hybridization was performed in the presence of 50% formamide, 0.1 M Pipes, 0.8 M NaCl, 5×Denhardt's solution, 100 μg/ml denatured herring sperm DNA, 1×10^6 cpm/ml [α-^32 P]-labeled probe and 10% dextran sulfate at 42° C. for 16 hours. Following hybridization, the membrane was subjected to two low stringency washes (2×SSC) at room temperature and then two high stringency washes (0.1×SSC/0.5% SDS) at 55° C. […]

[2] = system: A549 cells; assay: [3H]-thymidine incorporation (DNA synthesis) in A549 cells; conditions: 300 nM, all 5 days
Protocol: Cells were pulse-labeled with [^3 H]-thymidine for 5 hours at intervals over the next five days. Cells were lysed and [^3 H]-thymidine incorporation (indicative of DNA synthesis) was determined by liquid scintillation counting.
At timed intervals during the next 5 days, cells were pulse-labeled with [^3 H]-thymidine (0.5 μCi/ml) for 5 hours. […] The results given are the mean of three independent experiments.

[3] = system: A549 cells; assay: A549 cell proliferation (viable cell counts); conditions: 300 nM, all 5 days
Protocol: A549 cells were treated with ISIS 15534 or its scrambled control, ISIS 15521 at a concentration of 300 nM. Each day for the next 5 days, viable cells were counted.
A549 cells were seeded in 12-well tissue culture plates at about 50% confluence in DMEM containing 10% fetal bovine serum. The next day, cells were treated with the PP5-specific antisense oligonucleotide, ISIS 15534, or its scrambled control, ISIS 15521, at a final concentration of 300 nM as described in Example 7. On each of the following 5 days, cultures from three wells of each treatment gruop were trypsinized, collected and counted. Cell viability was determined by trypan blue staining, and the results given are the mean of three independent experiments.
A549 cells were seeded in 12-well tissue culture plates at a density of 5.0×10^4 cell/dish. On the next day, the cells were treated with PP5 specific antisense oligonucleotides (ISIS 15534) or the scrambled mismatch control (ISIS 15521) at a final concentration of 300 nM as described above. On each of the next five days, the cell cultures were treated briefly with trypsin to detach the cells from the dish (three wells from each test group). The number of cells was then determined by counting using a hemacytometer. Cell viability was determined with trypan blue staining. The percentage of viable cells was calculated by dividing the number of cells excluding trypan blue by the total number of cells, and the results are reported as the mean +/- SD of data collected from three independent experiments.
The antiproliferative effect of dexamethasone correlates with the presence of wild type p53 and the expression of p21^Waf1/Cip1 mRNA. Referring to FIGS. 1A-1C, the effect of dexamethasone on cell proliferation in p53-defective T-24 human bladder carcinoma, p53-null TR9 human fibroblasts (Webster et al. 1993; Maiyar et al. 1996), and p53 wild-type A549 human lung carcinoma cells was determined by treating cells in log-phase growth with a single dose of 100 nM dexamethasone and counting the number of cells in treated (.cndot.) and untreated (.box-solid.) cultures for six consecutive days following treatment. Each point represents the mean of triplicate dishes with error bars representing SE. Under similar conditions, treatment with ISIS 15534, a potent inhibitor of PP5 gene expression, inhibited growth in A459 but not T-24 or TR9 cells (Zuo et al. 1998). Referring to FIG. 1D, a comparison of p21^Waf1/Cip1 (p21) and serum glucocorticoid inducible protein kinase (sgk) mRNA levels in p53 competent (Lanes 3, 4) and p53 deficient (Lanes 1, 2, 5, 6) cell cultures after dexamethasone treatment is shown. Cell cultures in logphase growth were treated with 100 nM dexamethasone (+) or vehicle alone as a control (-). After 24 hours total mRNA was prepared and analyzed for p21 and sgk mRNA levels by Northern analysis.

**Q.** For “ISIS 14504: chimeric 2'-MOE/deoxy gap antisense oligonucleotide to human PP5, 3' UTR; GGGCCCTATTGCTTGAGTGG, SEQ ID NO: 12 (sugars by position and backbone not given here; chimeric 2'-MOE wings with deoxy gap)”, which “Activity class in initial screen (PP5 mRNA reduction)” value ([1]; 300 nM oligonucleotide) is on record?
**A.** active

**Q.** For “ISIS 14505: chimeric 2'-MOE/deoxy gap antisense oligonucleotide to human PP5, 3' UTR; CCCAGCCTAGCCCCACCATG, SEQ ID NO: 13 (sugars by position and backbone not given here; chimeric 2'-MOE wings with deoxy gap)”, which “Percent Inhibition of PP5 mRNA” value ([1]; 300 nM oligonucleotide, four hours, lipofectin, approximate, compared to control) is on record?
**A.** 23%

**Q.** What does the source list for “ISIS 15521: mismatch (scrambled) control oligonucleotide, phosphodiester wings, phosphorothioate gap; GTGCGATCGTTGCGGTTAGC, SEQ ID NO: 14 (sugars by position and backbone not given here; phosphodiester wings, phosphorothioate gap) [reference compound]”?
**A.** [3H]-thymidine incorporation relative to untreated control [2]: approximately equivalent to untreated control; Inhibition of PP5 mRNA levels at any of the doses tested ([1]; doses of 25 to 500 nM): ≤ 20%; Proliferation relative to untreated control [3]: approximately equivalent to untreated control

**Q.** Which IC50 ([1]; doses of 25 to 500 nM, read-out: IC50 for reduction of PP5 mRNA levels) does the source give for “ISIS 15523: chimeric PP5 antisense oligonucleotide, wider deoxy gap, uniformly phosphorothioate; GGGCCCTATTGCTTGAGTGG, SEQ ID NO: 12 (all phosphorothioate, sugars by position and methylation of C not given here; chimeric with deoxy gap)” here?
**A.** ~100 nM

Source: patent US6235891A, “Glucocorticoid receptor agonist and decreased PP5” (South Alabama Medical Science Foundation, priority 1999, dated 2001)
